Test system: human dermal fibroblasts
Assay: MTT assay, cell viability
Assay type: cell-based
Settings: 1, 5, 10 μM; up to 72 hours
Method: MTT assays were performed to assess the metabolic activity of human dermal fibroblasts. Human dermal fibroblasts were seeded in 96-well plates (Costar, USA) at a density of 1×10^4 cells/mL. After 24 hours of incubation, the medium was replaced by the Lig-PEG1, Lig-PEG2, Lig-PEG4, α-CD and P(PEGMA) (Mn=18 000 g/mol) aqueous solutions at concentrations of 10 μM, 5 μM and 1 μM, respectively. The cells were then incubated for 24 hours, 48 hours and 72 hours, respectively. After the designated time intervals, the wells were washed twice with 1×PBS buffer, and 100 μL of freshly prepared MTT (0.5 mg/mL) solution in culture medium was added to each well. The MTT medium solution was carefully removed after 3 hours incubation in the incubator. DMSO (100 μL) was then added into each well, and the plate was gently shaken for 10 minutes at room temperature to dissolve all precipitates formed. The absorbance of MTT at 570 nm was monitored by the microplate reader (Genios Tecan, Switzerland). Cell viability was expressed by the ratio of absorbance of the cells incubated with polymer solution to that of the cells incubated with culture medium only.

With OC[C@H]1O[C@@H]2O[C@H]3[C@H](O)[C@@H](O)[C@@H](O[C@H]4[C@H](O)[C@@H](O)[C@@H](O[C@H]5[C@H](O)[C@@H](O)[C@@H](O[C@H]6[C@H](O)[C@@H](O)[C@@H](O[C@H]7[C@H](O)[C@@H](O)[C@@H](O[C@H]1[C@H](O)[C@H]2O)O[C@@H]7CO)O[C@@H]6CO)O[C@@H]5CO)O[C@@H]4CO)O[C@@H]3CO [α-CD, α-cyclodextrin] the cytotoxicity was “no cytotoxicity”.

— patent publication US10683382B2, “Copolymer comprising a lignin or lignin derivative and a poly(alkylene oxide) alkyl ether (meth)acrylate, and a hydrogel comprising the copolymer” (AGENCY FOR SCIENCE, TECHNOLOGY AND RESEARCH, priority 2015, dated 2020)
